Some targets named below: HLA-A*3101 (Homo sapiens, UniProt P04439, A270S/D185E/E176V/E277Q/F33T/G231S/G80R/H175R/I121M/I218V/I322F/K168Q/L300P/L318F/M331R/P217A/Q94H/R138Q/T323A/T345S/T97I/V358M); HLA-A*0301 (Homo sapiens, UniProt P04439); HLA-A*3301 (Homo sapiens, UniProt P04439, A270S/D185E/E176V/E277Q/E87N/F33T/G231S/H175R/I121M/I218V/I322F/K168Q/K210R/L300P/L318F/M331R/P217A/Q86R/Q94H/R138Q/T323A/T345S/T97I/V358M/Y195H); HLA-A*6801 (Homo sapiens, UniProt P04439, A269V/D185E/E176V/E277Q/E87N/F33Y/G231S/I121M/I166T/I218V/L180W/L300P/L318F/N151K/P208A/P217A/Q86R/R169H/T345S); HLA-A*1101 (Homo sapiens, UniProt P04439, A114D/D185E/E176A/F33Y/L180Q/S129P/T187R).

Common to all, as to experiment: biochemical
What all share (assay type): binding

pIC50: −log10 of the molar value. No end group written: not given here.

For 20 sequences, IC50 results are on record in patent US20060079453A1, “Hla binding peptides and their uses” (priority 2002, published 2006).

As usually defined, the pIC50 is the IC50 on a negative log10 scale, so that one unit is a factor of ten.

Chain of HLA-A*1101 (P04439 25-365 limits assumed, stated change not applied): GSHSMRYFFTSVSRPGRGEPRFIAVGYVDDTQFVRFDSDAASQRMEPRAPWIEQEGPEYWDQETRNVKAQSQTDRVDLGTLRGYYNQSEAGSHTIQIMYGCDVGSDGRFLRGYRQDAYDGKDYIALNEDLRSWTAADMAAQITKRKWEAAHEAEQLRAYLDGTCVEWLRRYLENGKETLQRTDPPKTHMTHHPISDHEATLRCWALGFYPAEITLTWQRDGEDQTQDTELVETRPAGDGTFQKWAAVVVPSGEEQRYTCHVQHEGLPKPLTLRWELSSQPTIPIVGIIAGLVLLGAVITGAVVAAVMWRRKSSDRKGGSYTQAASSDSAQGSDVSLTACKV

Consider TLYQIQVMKR, for which the pIC50 against HLA-A*3101 was 6.40; at HLA-A*0301, 6.44; against HLA-A*3301 it was 6.25; at HLA-A*6801, 7.05; against HLA-A*1101 it was 6.79.

Take LLFYSKVRKYR: the pIC50 was 8.15 at HLA-A*3101; 7.55 against HLA-A*0301; 7.96 on HLA-A*3301; 7.82 against HLA-A*6801; 7.03 against HLA-A*1101.

As to GTRQARRNRK, the pIC50 on HLA-A*3101 was 5.42; against HLA-A*0301 it was 7.00; against HLA-A*3301, below 4.37; against HLA-A*6801, 5.11; on HLA-A*1101 it was 6.20.

SVYGETLER: the pIC50 against HLA-A*3101 is 6.63; at HLA-A*0301, 7.36; on HLA-A*3301, 6.80; against HLA-A*6801, 7.77; against HLA-A*1101, 7.96.

As to VTLDIQSTK, the negative logarithm of the IC50 (pIC50) against HLA-A*3101 was 5.69; against HLA-A*0301 it was 7.11; against HLA-A*3301, 5.71; on HLA-A*6801, 6.63; against HLA-A*1101, 7.89.

As for LVFSNVLCFR, the pIC50 on HLA-A*3101 is 7.48; against HLA-A*0301, 6.92; on HLA-A*3301 it was 7.72; against HLA-A*6801, 8.11; on HLA-A*1101 it was 7.72.

For GTMYILLKK, the pIC50 is 7.54 against HLA-A*3101; 8.66 on HLA-A*0301; 5.07 against HLA-A*3301; 8.51 at HLA-A*6801; 8.92 at HLA-A*1101.

For NIMGRWTGK, the negative logarithm of the IC50 (pIC50) against HLA-A*3101 was 5.48; on HLA-A*0301, 7.28; at HLA-A*3301, 7.07; against HLA-A*6801, 6.76; on HLA-A*1101, 7.27.

Take KFYSKISEYK: the pIC50 at HLA-A*3101 was 7.57; at HLA-A*0301, 8.12; at HLA-A*3301, 6.48; at HLA-A*6801 it was 6.68; against HLA-A*1101, 6.17.

SFYGKTLEER: the pIC50 at HLA-A*3101 was 7.77; against HLA-A*0301, 6.19; on HLA-A*3301, 7.18; on HLA-A*6801, 7.38; against HLA-A*1101, 6.69.

As to TSVHEIELR, the pIC50 against HLA-A*3101 was 5.98; against HLA-A*0301 it was below 4.19; at HLA-A*3301, 5.23; against HLA-A*6801 it was 7.92; at HLA-A*1101, 6.06.

Regarding TFLEKLTNK, the pIC50 is 6.35 at HLA-A*3101; 5.17 against HLA-A*0301; 6.83 against HLA-A*3301; 6.04 against HLA-A*6801; 6.09 against HLA-A*1101.

With FVVYRDSIPK, the pIC50 was 5.21 against HLA-A*3101; 6.58 against HLA-A*0301; 6.84 against HLA-A*3301; 7.52 against HLA-A*6801; 7.09 on HLA-A*1101.

In the case of STLPGPGPGRR, the pIC50 was 7.21 on HLA-A*3101; 6.53 against HLA-A*0301; 5.72 at HLA-A*3301; 7.60 on HLA-A*6801; 7.72 at HLA-A*1101.

Regarding QMAVGPGPGK, the pIC50 was 5.22 on HLA-A*3101; 7.48 on HLA-A*0301; 4.06 against HLA-A*3301; 7.66 at HLA-A*6801; 7.80 against HLA-A*1101.

With RLYSKVSEFR, the pIC50 against HLA-A*3101 was 7.62; on HLA-A*0301, 8.19; on HLA-A*3301, 6.16; at HLA-A*6801, 7.14; on HLA-A*1101, 6.88.

For RFHSIAGQYK, the pIC50 against HLA-A*3101 is 8.89; on HLA-A*0301 it was 7.77; against HLA-A*3301 it was 6.20; at HLA-A*6801 it was 7.08; on HLA-A*1101 it was 7.37.

As to NTLEQTVKR, the pIC50 on HLA-A*3101 was 5.64; at HLA-A*0301, 4.69; on HLA-A*3301 it was 7.74; at HLA-A*6801 it was 8.07; against HLA-A*1101 it was 5.94.

As for KVGPGGYPRR, the pIC50 against HLA-A*3101 is 6.60; at HLA-A*0301, 5.64; against HLA-A*3301, 5.10; on HLA-A*6801 it was 6.14; against HLA-A*1101 it was 6.31.

Consider VTVRIGGMQK, for which the pIC50 against HLA-A*3101 is 5.59; at HLA-A*0301, 7.27; against HLA-A*3301 it was 4.35; against HLA-A*6801 it was 6.81; on HLA-A*1101 it was 7.89.
